Columns and labels:
[1] = test system: CA09; experiment: microbe, parasite or virus in culture; type: cell-based, influenza virus H1N1 strain A/CA/04/2009; settings: NHBE, read-out: TCID50 (per mL)
[2] = test system: NHBE cells; experiment: Biolog metabolic array: substrate use by NHBE cells with or without CA09 infection; type: cell-based, human; settings: for Substrate use, 590 nm absorbance normalized to zero hour, 0 hr: Biolog PMM2, 0 hr; for Substrate use, 590 nm absorbance normalized to zero hour, 1 hr: Biolog PMM2, 1 hr; for Substrate use, 590 nm absorbance normalized to zero hour, 5 hr: Biolog PMM2, 5 hr; for Substrate use, 590 nm absorbance normalized to zero hour, 7 hr: Biolog PMM2, 7 hr
[3] = Control (uninfected) NHBE cells
[4] = Virus (CA09, MOI 1) infected NHBE cells
[5] = Virus (CA09-infected, MOI 1) NHBE cells
[6] = Virus: CA09-infected NHBE cells, MOI 1, Biolog PMM2

Row | SMILES | 590 nm absorbance normalized to zero hour (substrate use), 1 hr [2, 3] | 590 nm absorbance normalized to zero hour (substrate use), 2 hr [2, 3] | 590 nm absorbance normalized to zero hour (substrate use), 3 hr [2, 3] | 590 nm absorbance normalized to zero hour (substrate use), 4 hr [2, 3] | 590 nm absorbance normalized to zero hour (substrate use), 6 hr [2, 3] | 590 nm absorbance normalized to zero hour (substrate use), 8 hr [2, 3] | 590 nm absorbance normalized to zero hour (substrate use), 9 hr [2, 3] | 590 nm absorbance normalized to zero hour (substrate use), 10 hr [2, 3] | 590 nm absorbance normalized to zero hour (substrate use), 11 hr [2, 3] | Substrate use, 590 nm absorbance normalized to zero hour, 1 hr [2, 3] | Substrate use, 590 nm absorbance normalized to zero hour, 5 hr [2, 3] | Substrate use, 590 nm absorbance normalized to zero hour, 7 hr [2, 3] | 590 nm absorbance normalized to zero hour (substrate use), 1 hr [2, 5] | 590 nm absorbance normalized to zero hour (substrate use), 2 hr [2, 5] | 590 nm absorbance normalized to zero hour (substrate use), 3 hr [2, 5] | 590 nm absorbance normalized to zero hour (substrate use), 4 hr [2, 5] | 590 nm absorbance normalized to zero hour (substrate use), 6 hr [2, 5] | 590 nm absorbance normalized to zero hour (substrate use), 8 hr [2, 5] | 590 nm absorbance normalized to zero hour (substrate use), 9 hr [2, 5] | 590 nm absorbance normalized to zero hour (substrate use), 10 hr [2, 5] | further results
1 | O=C(CO)[C@@H](O)[C@@H](O)[C@H](O)[C@H](O)CO [D-mannoheptulose] | – | – | – | – | – | – | – | – | – | – | – | – | – | – | – | – | – | – | – | – | log reduction at 10 pM [1]: 0; log reduction at 0.0001 µM [1]: 0.76; log reduction at 0.001 µM [1]: 0.56; log reduction at 0.01 µM [1]: 0; log reduction at 0.1 µM [1]: 0.25; log reduction at 1 µM [1]: 0.88; log reduction at 10 µM [1]: 0.4; log reduction at 100 µM [1]: -0.03
2 | CC(=O)N[C@H]1[C@H]([C@H](O)[C@H](O)CO)OC(O)(C(=O)O)C[C@@H]1O (stereo partly drawn) [n-acetyl-neuraminic acid] | 0.19 | 0.21 | 0.19 | 0.20 | 0.36 | 0.27 | 0.29 | 0.32 | 0.25 | 0.19 | 0.23 | 0.26 | 4.77 | 3.35 | 3.95 | 3.57 | 2.71 | 1.60 | 1.61 | 1.82 | 590 nm absorbance normalized to zero hour (substrate use), 0 hr [2, 3]: 1.00; Substrate use, 590 nm absorbance normalized to zero hour, 0 hr [2, 3]: 1.00; Substrate use, 590 nm absorbance normalized to zero hour, 0 hr [2, 4]: 1.00; Substrate use, 590 nm absorbance normalized to zero hour, 1 hr [2, 4]: 4.77; Substrate use, 590 nm absorbance normalized to zero hour, 5 hr [2, 4]: 1.43; Substrate use, 590 nm absorbance normalized to zero hour, 7 hr [2, 4]: 1.58; 590 nm absorbance normalized to zero hour (substrate use), 0 hr [2, 5]: 1.00; 590 nm absorbance normalized to zero hour (substrate use), 11 hr [2, 5]: 2.21
3 | O=C(CO)[C@@H](O)[C@@H](O)[C@H](O)CO [D-Tagatose] | 1.07 | 1.01 | 0.88 | 0.28 | 0.49 | 0.34 | 0.36 | 0.37 | 0.39 | 1.07 | 0.29 | 0.32 | 0.17 | 0.24 | 0.28 | 0.30 | 0.39 | 0.44 | 0.49 | 0.51 | 590 nm absorbance normalized to zero hour (substrate use), 5 hr [2, 5]: 0.36; 590 nm absorbance normalized to zero hour (substrate use), 7 hr [2, 5]: 0.42; 590 nm absorbance normalized to zero hour (substrate use), 1 hr [2, 6]: 0.17; 590 nm absorbance normalized to zero hour (substrate use), 2 hr [2, 6]: 0.24; 590 nm absorbance normalized to zero hour (substrate use), 3 hr [2, 6]: 0.28; 590 nm absorbance normalized to zero hour (substrate use), 4 hr [2, 6]: 0.30; 590 nm absorbance normalized to zero hour (substrate use), 5 hr [2, 6]: 0.36; 590 nm absorbance normalized to zero hour (substrate use), 6 hr [2, 6]: 0.39; 590 nm absorbance normalized to zero hour (substrate use), 7 hr [2, 6]: 0.42; 590 nm absorbance normalized to zero hour (substrate use), 8 hr [2, 6]: 0.44; 590 nm absorbance normalized to zero hour (substrate use), 9 hr [2, 6]: 0.49; 590 nm absorbance normalized to zero hour (substrate use), 10 hr [2, 6]: 0.51; 590 nm absorbance normalized to zero hour (substrate use), 11 hr [2, 6]: 0.48
4 | OC[C@H]1O[C@H](OC[C@H]2O[C@H](OC[C@H]3O[C@H](O[C@]4(CO)O[C@H](CO)[C@@H](O)[C@@H]4O)[C@H](O)[C@@H](O)[C@@H]3O)[C@H](O)[C@@H](O)[C@H]2O)[C@H](O)[C@@H](O)[C@H]1O [Stachyose] | 8.51 | 8.20 | 7.94 | 8.00 | 3.45 | 3.67 | 3.90 | 9.13 | 4.47 | 8.51 | 3.55 | 6.99 | 1.42 | 1.76 | 1.96 | 2.07 | 5.10 | 3.40 | 3.17 | 2.89 | 590 nm absorbance normalized to zero hour (substrate use), 0 hr [2, 3]: 1.00; Substrate use, 590 nm absorbance normalized to zero hour, 0 hr [2, 3]: 1.00; 590 nm absorbance normalized to zero hour (substrate use), 0 hr [2, 5]: 1.00; 590 nm absorbance normalized to zero hour (substrate use), 5 hr [2, 5]: 4.65; 590 nm absorbance normalized to zero hour (substrate use), 7 hr [2, 5]: 3.71; 590 nm absorbance normalized to zero hour (substrate use), 11 hr [2, 5]: 4.13; 590 nm absorbance normalized to zero hour (substrate use), 0 hr [2, 6]: 1.00; 590 nm absorbance normalized to zero hour (substrate use), 1 hr [2, 6]: 1.42; 590 nm absorbance normalized to zero hour (substrate use), 2 hr [2, 6]: 1.76; 590 nm absorbance normalized to zero hour (substrate use), 3 hr [2, 6]: 1.96; 590 nm absorbance normalized to zero hour (substrate use), 4 hr [2, 6]: 2.07; 590 nm absorbance normalized to zero hour (substrate use), 5 hr [2, 6]: 4.65; 590 nm absorbance normalized to zero hour (substrate use), 6 hr [2, 6]: 5.10; 590 nm absorbance normalized to zero hour (substrate use), 7 hr [2, 6]: 3.71; 590 nm absorbance normalized to zero hour (substrate use), 8 hr [2, 6]: 3.40; 590 nm absorbance normalized to zero hour (substrate use), 9 hr [2, 6]: 3.17; 590 nm absorbance normalized to zero hour (substrate use), 10 hr [2, 6]: 2.89; 590 nm absorbance normalized to zero hour (substrate use), 11 hr [2, 6]: 4.13
5 | CCC(=O)O [Propionic Acid] | 1.39 | 1.55 | 1.71 | 1.74 | 0.17 | 1.84 | 1.99 | 1.15 | 1.23 | 1.39 | 1.91 | 1.75 | 1.23 | 0.70 | 0.83 | 0.93 | 1.15 | 1.18 | 1.32 | 1.11 | 590 nm absorbance normalized to zero hour (substrate use), 5 hr [2, 5]: 1.08; 590 nm absorbance normalized to zero hour (substrate use), 7 hr [2, 5]: 1.17; 590 nm absorbance normalized to zero hour (substrate use), 11 hr [2, 5]: 1.26; 590 nm absorbance normalized to zero hour (substrate use), 1 hr [2, 6]: 1.23; 590 nm absorbance normalized to zero hour (substrate use), 2 hr [2, 6]: 0.70; 590 nm absorbance normalized to zero hour (substrate use), 3 hr [2, 6]: 0.83; 590 nm absorbance normalized to zero hour (substrate use), 4 hr [2, 6]: 0.93; 590 nm absorbance normalized to zero hour (substrate use), 5 hr [2, 6]: 1.08; 590 nm absorbance normalized to zero hour (substrate use), 6 hr [2, 6]: 1.15; 590 nm absorbance normalized to zero hour (substrate use), 7 hr [2, 6]: 1.17; 590 nm absorbance normalized to zero hour (substrate use), 8 hr [2, 6]: 1.18; 590 nm absorbance normalized to zero hour (substrate use), 9 hr [2, 6]: 1.32; 590 nm absorbance normalized to zero hour (substrate use), 10 hr [2, 6]: 1.11; 590 nm absorbance normalized to zero hour (substrate use), 11 hr [2, 6]: 1.26

— patent US11083725B2 (priority 2014, dated 2021)
